This is an account of results in patent US20250090699A1, “FAP TARGETING CYCLIC PEPTIDES AND CONJUGATES THEREOF” (Novartis AG, priority 2023, published 2025).

Assay [1] addresses T1, mouse FAP (Mus musculus, UniProt P97321).
T1 construct: biotinylated His, Avi tag, mouse FAP (26-761, FAP-M82Q5); His; Avi tag (biotinylated); purchased AcroBiosystems FAP-M82Q5
T1 sequence (P97321 26-761): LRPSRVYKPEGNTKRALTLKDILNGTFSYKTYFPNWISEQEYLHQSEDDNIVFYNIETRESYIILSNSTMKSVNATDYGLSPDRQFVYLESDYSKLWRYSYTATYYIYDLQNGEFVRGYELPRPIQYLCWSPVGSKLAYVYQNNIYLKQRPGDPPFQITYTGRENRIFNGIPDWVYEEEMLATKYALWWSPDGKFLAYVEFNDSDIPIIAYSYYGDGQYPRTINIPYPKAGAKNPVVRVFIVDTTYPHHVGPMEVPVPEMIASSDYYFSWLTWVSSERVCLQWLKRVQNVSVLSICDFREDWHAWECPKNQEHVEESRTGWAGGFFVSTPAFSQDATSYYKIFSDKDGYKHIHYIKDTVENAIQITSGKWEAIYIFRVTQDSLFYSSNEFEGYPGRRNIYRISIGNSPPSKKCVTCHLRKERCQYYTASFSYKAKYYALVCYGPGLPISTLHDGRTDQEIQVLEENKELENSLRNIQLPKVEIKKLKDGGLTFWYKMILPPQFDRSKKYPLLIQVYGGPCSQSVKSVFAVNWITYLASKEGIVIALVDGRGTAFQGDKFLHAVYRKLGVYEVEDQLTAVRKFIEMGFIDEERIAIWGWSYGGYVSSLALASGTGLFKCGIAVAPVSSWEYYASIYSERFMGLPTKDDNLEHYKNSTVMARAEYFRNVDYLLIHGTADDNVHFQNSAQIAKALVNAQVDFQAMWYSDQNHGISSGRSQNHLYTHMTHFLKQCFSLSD
The experiment in a line: Surface plasmon resonance (SPR) for peptide affinity, mouse FAP. Type of assay: binding. Here is the method: Peptide affinities (KD) were determined by SPR using a Biacore™ 8K device (Cytiva) towards the following proteins: biotinylated His, Avi tag, human FAP (26-760, FAP-H82Q6), biotinylated His, Avi tag, mouse FAP (26-761, FAP-M82Q5), His tag, human DPP4 (34-766, DP4-H82E3), all purchased from AcroBiosystems and His tag, mouse DPP4 (29-760, 954-SE) from R&D Systems. The FAP proteins and their homologous were diluted to a concentration of 2 μg/mL into acetate buffer pH 5.5, then immobilized onto a CM5 sensorchip (Cytiva, BR-1005-30) to reach a response around 2000 R U. The running buffer HBS-EP+pH 7.6 (20× from Teknova CAT. No: H8022) contained 10 mM HEPES pH 7.6, 150 mM NaCl, 3 mM EDTA, 0.05% Tween20 and 2% DMSO. Experiments were carried out at 25° C. using a flow rate of 30 μL/min. Compounds were tested in single cycle kinetic mode at 8 different concentrations. Curve fitting was performed using the Biacore™ 8K evaluation software. The sensorgrams were fitted by applying a 1:1 binding model to calculate kinetic rate constants and equilibrium dissociation constants (KD).
For this assay, the setup had the same conditions (flow rate, running buffer, peptide dilution) as described above for the CM5 method. The oligo CAP reagent obtained in the CAPture Kit (Ref. 28920234) was 1/5 diluted into running buffer and used with a contact time of 300 s at a flow rate of 2 μL/min. The human and mouse FAP constructs described above were used (from AcroBiosystems or produced in house). The FAP proteins were diluted to a concentration of 2 μg/mL into acetate pH 5.5, 0.05% Tween20 and used with a contact time of 600 s at a flow rate of 10 μL/min. The peptides were tested with an association time of 280 s followed by a dissociation time of 3000 s at a flow rate of 30 μL/min. The regeneration was done using the regeneration solution (8 M guanidine-HCl, 1 M NaOH) as obtained with a contact time of 270 s at a flow rate of 10 μL/min. […] The compounds marked with an asterisk were tested against human and mouse DDP4.

The next assay addresses T2, human FAP (Homo sapiens, UniProt Q12884).
T2 construct: the biotinylated His, Avi tag, human FAP (26-760, FAP-H82Q6); His; Avi tag (biotinylated); purchased AcroBiosystems FAP-H82Q6
T2 sequence (Q12884 26-760): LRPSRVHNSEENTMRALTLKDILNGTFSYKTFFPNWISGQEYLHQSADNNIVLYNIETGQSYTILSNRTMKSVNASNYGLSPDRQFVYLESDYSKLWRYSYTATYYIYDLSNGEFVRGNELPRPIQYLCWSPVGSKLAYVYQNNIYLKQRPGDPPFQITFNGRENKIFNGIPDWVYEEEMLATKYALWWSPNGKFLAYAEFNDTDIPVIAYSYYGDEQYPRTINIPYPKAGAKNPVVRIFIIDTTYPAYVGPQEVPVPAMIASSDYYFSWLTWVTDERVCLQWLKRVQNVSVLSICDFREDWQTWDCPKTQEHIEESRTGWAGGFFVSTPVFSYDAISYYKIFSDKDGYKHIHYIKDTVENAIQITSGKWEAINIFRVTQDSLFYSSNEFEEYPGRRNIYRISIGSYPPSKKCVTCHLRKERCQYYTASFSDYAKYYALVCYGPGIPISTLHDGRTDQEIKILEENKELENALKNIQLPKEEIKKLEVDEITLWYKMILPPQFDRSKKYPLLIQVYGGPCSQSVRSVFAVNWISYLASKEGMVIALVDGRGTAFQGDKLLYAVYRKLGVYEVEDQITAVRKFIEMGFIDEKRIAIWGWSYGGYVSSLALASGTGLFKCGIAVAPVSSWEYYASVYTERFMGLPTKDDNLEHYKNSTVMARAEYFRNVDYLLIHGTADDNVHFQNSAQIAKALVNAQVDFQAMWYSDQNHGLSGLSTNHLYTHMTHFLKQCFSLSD
The experiment in a line: Enzymatic FAP competition assay (Z-Gly-Pro-AMC fluorescence), human FAP. Type of assay: biochemical. The settings on record: read-out: h. FAP, Enz., IC50. Here is the method: (§1) Peptide potencies (IC50) to inhibit the FAP enzymatic activity were determined using a fluorescence-based assay towards the biotinylated His, Avi tag, human FAP (26-760, FAP-H82Q6) and the biotinylated His, Avi tag, mouse FAP (26-761, FAP-M82Q5). Standard assay conditions consisted of 20 μL total volume in white 384-well plates (Greiner, Ref. 784075), in 50 mM phosphate buffer pH 7.5 containing 150 mM NaCl, 0.05% Tween20 and 1% final DMSO. Tested peptides at 14 different concentrations up to 1 μM were added to 0.01 nM human or mouse FAP. The peptides were incubated for 24 hours together with the protein before adding the substrate 50 μM Z-Gly-Pro-AMC (I-1145 from Bachem). Samples were then incubated at 22-24° C. for 4 h before reading the fluorescence at excitation wavelength of 380 nm and emission wavelength of 460 nm using the Tecan Infinite® M1000 PRO. The high control (100% activity) was not containing any peptide, and an internal potent peptide was added at 10 μM concentration for the low control (100% inhibition). IC50 values were calculated by curve fitting using an in-house developed software (Novartis Helios software application) using the method described by Fomenko et al., 2006 (regression algorithms for nonlinear dose-response curve fitting). Following normalization of activity values for the wells to % inhibition (% inhibition=[(high control-sample)/(high control-low control)]x 100). IC50 fitting was carried out from the duplicated points.

Assay [2] has as its target T1, mouse FAP. The experiment in a line: Enzymatic FAP competition assay (Z-Gly-Pro-AMC fluorescence), mouse FAP. Type of assay: biochemical. To be noted: read-out: m. FAP, Enz., IC50. Here is the method:
as §1

Where a name gives a salt, the structure may show the parent alone. Starred links: 1 amine or outer side, 2 acyl side, 3 side chain; linkers in the order of their positions; H or OH if unused. Non-standard residues stand in square brackets, D forms with d. Residues, ends and D or L forms follow the SMILES beside them. Groups on a side chain read outwards from the residue. *: point of attachment. F(4amPEG2NHDOTA-Ga) = gallium complex of (S)-2,2',2''-(10-(1-(4-(2-amino-2-carboxyethyl)phenyl)-3,12-dioxo-5,8-dioxa-2,11-diazatridecan-13-yl)-1,4,7,10-tetraazacyclododecane-1,4,7-triyl)triacetic acid (Phe with 4-aminomethyl-PEG2-DOTA-Ga), O=C([O-])CN1CCN(CC(=O)[O-])CCN(CC(=O)NCCOCCOCC(=O)NCc2ccc(C[C@H](N[*:1])C(=O)[*:2])cc2)CCN(CC(=O)[O-])CC1.[Ga+3]; K(COpipzaa) = N6-(4-(carboxymethyl)piperazine-1-carbonyl)-L-lysine, O=C(NCCCC[C@H](N[*:1])C(=O)[*:2])N1CCN(CC(=O)[*:3])CC1; X9 = O=C(O)CN1CCN(CC(=O)O)CCN([C@H](CCC(=O)*)C(=O)O)CCN(CC(=O)O)CC1; hS(Pr) = O-propyl-L-homoserine, CCCOCC[C@H](N[*:1])C(=O)[*:2]; Trp(7-OMe) = COc1cccc2c(C[C@H](N)C(=O)O)c[nH]c12; Piperazinyl(4-CH2COOH) = O=C(O)CN1CCN(*)CC1; AEF = NCCOc1ccc(C[C@H](N)C(=O)O)cc1; NMeF = CN[C@@H](Cc1ccccc1)C(=O)O; Ahp(2) = CCCCC[C@H](N)C(=O)O; NMeK = CN[C@@H](CCCCN)C(=O)O; CO = O=C([*:1])[*:2] A value given as a limit tells only on which side of the number the result lay.

As to `CCCCC[C@@H]1NC(=O)[C@H](Cc2ccc(O)cc2)NC(=O)[C@H](Cc2ccccc2)N(C)C(=O)CNC(=O)CNC(=O)[C@H]2CCCN2C(=O)[C@H](CC(=O)O)NC(=O)[C@H](CCCCNC(=O)N2CCN(CC(=O)O)CC2)N(C)C(=O)CNC(=O)[C@H](Cc2c[nH]c3ccccc23)NC1=O` [Example A3, 2-((9S,12S,15S,18S,24S,27S,32aR)-18-((1H-indol-3-yl)methyl)-9-benzyl-24-(4-(4-(carboxymethyl)piperazine-1-carboxamido)butyl)-12-(4-hydroxybenzyl)-8,23-dimethyl-1,4,7,10,13,16,19,22,25,28-decaoxo-15-pentyldotriacontahydropyrrolo[1,2-a][1,4,7,10,13,16,19,22,25,28]decaazacyclotriacontin-27-yl)acetic acid TFA salt] (cyclo([Ahp(2)]WG[NMeK]([CO-Piperazinyl(4-CH2COOH)])D[dP]GG[NMeF]Y)), binding on mouse FAP [1] was characterised by a dissociation constant (Kd) of 1.9 nM. Besides, the IC50 at human FAP came to 0.76 nM; on mouse FAP [2] it was 0.95 nM.
Compound “Glu-Gly-NMePhe-F(4amPEG2NHDOTA-Ga)-hS(Pr)-Trp-Gly-K(COpipzaa)-Asp-D-Pro (cyclo(EG[NMeF][F(4amPEG2NHDOTA-Ga)][hS(Pr)]WG[K(COpipzaa)]D[dP]); also: Ga complex of DOTA) [Example C45]” returned a Kd with mouse FAP [1] of less than 0.023 nM. In addition, the IC50 with human FAP is 0.019 nM; in the assay with mouse FAP [2] it was 0.06 nM.
In turn, `CCCCC[C@@H]1NC(=O)[C@H](Cc2ccc(O)cc2)NC(=O)[C@H](Cc2ccccc2)N(C)C(=O)CNC(=O)CNC(=O)[C@H]2CCCN2C(=O)[C@H](CC(=O)O)NC(=O)[C@H](Cc2ccc(O)cc2)NC(=O)[C@@H](C)NC(=O)[C@H](Cc2c[nH]c3ccccc23)NC1=O` [Example A64, Gly-Gly-NMePhe-Tyr-Ahp-Trp-D-Ala-Tyr-Asp-D-Pro] (cyclo([Ahp(2)]W[dA]YD[dP]GG[NMeF]Y)) showed a Kd on mouse FAP [1] of 3.6 nM. Moreover, the IC50 at human FAP stood at 2.4 nM; at mouse FAP [2], 4.1 nM.
“hSer-Gly-NMe3PyA-F(4amPEG2NHDOTA-Lu)-hS(Pr)-W7N-Gly-K(COpipzaa)-Asp-D-Pro [Example C6]” registered a Kd on mouse FAP [1] of less than 0.035 nM. Further, the IC50 on human FAP amounted to 0.024 nM; at mouse FAP [2], 0.049 nM.
With `CCCCC[C@@H]1NC(=O)[C@H](Cc2ccc(O)cc2)NC(=O)[C@H](Cc2ccccc2)N(C)C(=O)CNC(=O)CNC(=O)[C@H]2CCCN2C(=O)[C@H](CC(=O)O)NC(=O)[C@H](Cc2ccc(O)cc2)NC(=O)CNC(=O)[C@H](Cc2c[nH]c3c(OC)cccc23)NC1=O` [Example A61, Gly-Gly-NMePhe-Tyr-Ahp-W(7OMe)-Gly-Tyr-Asp-D-Pro] (cyclo([Ahp(2)][Trp(7-OMe)]GYD[dP]GG[NMeF]Y)), binding at mouse FAP [1] was put at a Kd of 0.162 nM. Besides, the IC50 came to 0.065 nM on human FAP and 0.3 nM on mouse FAP [2].
Turning to `CCCCC[C@@H]1NC(=O)[C@H](Cc2ccc(OCCNC(=O)CC[C@H](C(=O)O)N3CCN(CC(=O)O)CCN(CC(=O)O)CCN(CC(=O)O)CC3)cc2)NC(=O)[C@H](Cc2ccccc2)N(C)C(=O)CNC(=O)CNC(=O)[C@H]2CCCN2C(=O)[C@H](CC(=O)O)NC(=O)[C@H](Cc2ccc(O)cc2)NC(=O)CNC(=O)[C@H](Cc2c[nH]c3ccccc23)NC1=O` [Example B30, Gly-Gly-NMePhe-F(4OEtNHRDOTAGA)-Ahp-Trp-Gly-Tyr-Asp-D-Pro] (cyclo([AEF](X9)[Ahp(2)]WGYD[dP]GG[NMeF])), at mouse FAP [1], binding was put at a Kd of 0.119 nM. The IC50 worked out at 0.019 nM at human FAP and 0.118 nM on mouse FAP [2].
On the same counts, the results for `CCCCC[C@@H]1NC(=O)[C@H](Cc2ccc(O)cc2)NC(=O)[C@H](Cc2ccccc2)N(C)C(=O)[C@H](CCC(=O)O)NC(=O)[C@H](CCCCN)NC(=O)[C@H]2CCCN2C(=O)[C@H](CC(=O)O)NC(=O)[C@H](Cc2ccc(O)cc2)NC(=O)CNC(=O)[C@H](Cc2c[nH]c3ccccc23)NC1=O` [Example A21, Lys-Glu-NMePhe-Tyr-Ahp-Trp-Gly-Tyr-Asp-D-Pro, TFA salt] (cyclo([Ahp(2)]WGYD[dP]KE[NMeF]Y)) are 15 nM, 5.7 nM and 14 nM.
